This is an account of results in patent publication US11072634B2, “Inhibitors of transglutaminases” (Zedira GmbH, priority 2016, dated 2021).

One data set addresses T1, TG2 (Rattus norvegicus, UniProt Q9WVJ6).
T1 construct: endogenous in cells; host or cells: NRK52E
T1 sequence (Q9WVJ6 1-686): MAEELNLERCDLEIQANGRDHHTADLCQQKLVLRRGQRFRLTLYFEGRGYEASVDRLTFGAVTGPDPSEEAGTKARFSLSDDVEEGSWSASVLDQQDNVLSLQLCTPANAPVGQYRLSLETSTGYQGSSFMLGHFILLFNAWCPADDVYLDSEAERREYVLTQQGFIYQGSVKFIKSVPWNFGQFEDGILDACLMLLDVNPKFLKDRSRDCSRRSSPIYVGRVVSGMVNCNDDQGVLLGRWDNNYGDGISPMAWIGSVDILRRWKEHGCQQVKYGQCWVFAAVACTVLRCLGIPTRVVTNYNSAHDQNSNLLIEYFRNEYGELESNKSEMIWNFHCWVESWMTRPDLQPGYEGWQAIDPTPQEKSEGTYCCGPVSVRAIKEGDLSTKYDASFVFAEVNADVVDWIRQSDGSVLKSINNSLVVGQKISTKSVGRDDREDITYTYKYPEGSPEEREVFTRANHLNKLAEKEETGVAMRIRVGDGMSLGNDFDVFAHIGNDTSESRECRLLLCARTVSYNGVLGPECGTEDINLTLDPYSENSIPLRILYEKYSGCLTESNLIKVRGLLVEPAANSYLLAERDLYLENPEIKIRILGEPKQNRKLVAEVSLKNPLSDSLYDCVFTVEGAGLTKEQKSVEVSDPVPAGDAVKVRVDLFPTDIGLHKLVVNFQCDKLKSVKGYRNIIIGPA
Nature of the data set: TG2 activity in NRK52E cell homogenates (Tissue Transglutaminase Pico-Assay Kit). Type of data set: cell-based. To be noted: 6/24/36 mM glucose, 10-100 μM inhibitor. How it is done:
Fibrosis is a hallmark in diabetic nephropathy and chronic kidney diseases. Proximal tubular epithelial cells show increased TG2 activity and increased extracellular matrix proteins (ECM) accumulation under hyperglycemic conditions. ECM accumulation is a hall mark of fibrosis. […] TG2-activity and ECM-accumulation was measured. Rattus norvegicus kidney derived cell line NRK52E was grown at 37° C. in a humidified atmosphere at 5% (v/v) CO2 in DMEM (Dulbecco's modified Eagle's medium) containing 100 μg/mL streptomycin, 100 units/ml penicillin, […], and 10% (v/v) fetal calf serum. For simulation of normal physiological conditions 6 mM D-glucose were added to the medium, while addition of 24 mM and 36 mM D-glucose simulated hyperglycemic conditions. Reversible TG2 inhibitor E06 in the concentrations indicated in FIG. 1A was added at the time of plating to the medium. Reversible TG2 inhibitor E22 in the concentrations indicated in FIG. 2A was added at the time of plating to the medium.
TG2-activity was determined in cell homogenates. […]
TG2-activity was measured using the TG2-selective Tissue Transglutaminase Pico-Assay Kit (#M003, Zedira, Darmstadt, Germany) according to the manufacturer's instructions. […]

Another data set has as its system CaCo2 and Huh7 cells. Nature of the data set: Cytotoxicity of transglutaminase inhibitors (BrdU and EZ4U). To be noted: highest concentration measured 1 mM. Type of data set: cell-based, human. How it is done: The following cell lines are used for determination of cytotoxicity: • CaCo2 (human colon carcinoma cell line) • Huh7 (human liver carcinoma cell line).
Cells are cultivated in DMEM/10% FCS at 37° C. and 5% CO2 in a 96 well plate with an initial seeding density of 2×10^4 cells/well.
Transglutaminase inhibitors are added to the cells with final concentrations from 0.1 μM to 1 mM one hour after seeding. The different inhibitor dilutions are prepared in DMSO, resulting in a final concentration of 1% (v/v) DMSO in every well (2 μl inhibitor in 200 μl cell culture medium). Cycloheximide (2.5 μg/ml) and Camptothecin (0.2 μg/ml) are used as control compounds. All measurements are performed in triplicates.
Cytotoxicity of transglutaminase inhibitors is evaluated with two different assays:
Determination of proliferation using Cell Proliferation ELISA, BrdU (Roche, Cat. No. 11647229001).
After 24 h of incubation with inhibitors or controls, BrdU is added to the cells. After further incubation for 18 h, the cells are fixed and cellular DNA becomes denatured. […] Substrate solution is added and absorbance at 450 nm is recorded. […]
After 48 h of incubation with inhibitors or controls, the tetrazolium substrate is added to the cells. Substrate turnover by the cells is measured over two hours at 450 nm (using 630 nm was reference wavelength).

For the compound `CCCCCNC(=O)C(=O)CC[C@H](NC(=O)[C@@H]1CCCN1C(C)=O)C(=O)Nc1cccn(CC(=O)NCC(CC)CC)c1=O` [Compound E22, (S)-2-((S)-1-acetylpyrrolidine-2-carboxamido)-N1-(1-(2-(2-ethylbutylamino)-2-oxoethyl)-2-oxo-1,2-dihydropyridin-3-yl)-5-oxo-N6-pentylhexanediamide], the “TG2 activity determined in the cell homogenates” value on TG2 is recorded as “decreases”.
Take `CC(=O)N[C@@H](CCC(=O)C(N)=O)C(=O)N1CCN(c2ccccc2Cl)CC1` [Compound E06, (S)-5-acetamido-6-(4-(2-chlorophenyl)piperazin-1-yl)-2,6-dioxohexanamide]: on TG2, the “TG2 activity determined in the cell homogenates” value was “decreases”.
Turning to `COC(=O)[C@H](CC(C)C)NC(=O)[C@@H]1CCCN1C(=O)[C@@H](NC(=O)[C@H](CCC(=O)C(N)=O)NC(=O)OCc1ccccc1)C(C)C` [Compound E02, (S)-methyl 2-((S)-1-((S)-2-((S)-6-amino-2-(benzyloxycarbonylamino)-5,6-dioxo-hexanamido)-3-methylbutanoyl)pyrrolidine-2-carboxamido)-4-methylpentanoate], the “no influence on cell proliferation or metabolic activity up to” value in the data set on CaCo2 and Huh7 cells is over 1 mM.
